# Key:
# Format in all cases: cell-based, rat
# HSC-T6 cells [1] = assay: Cellular ROS determination (DCF labeling); details: 48 h
# Method: FIG. 2. (a) DBZIM and (b) TDBZIM attenuated cellular ROS level. HSC T6 cells were incubated with DBZIM (10, 50, 100 and 300 μM), TDBZIM (10, 50 and 100 μM), NAC (1 mM) and EGCG (25 μM) for 48 h before assaying for cellular ROS levels. The data were presented as relative values after normalizing against a vehicle control. The data were presented as mean and SEM, N=6, *^bP<0.01, *^cP<0.005, and *^dP<0.0005 when compared to the vehicle, control.
# The ROS level of treated HSC-T6 cells was determined using the dichlorofluorescein (DCF) labeling method (Molecular Probes Inc., OR, USA). Cultured cells were harvested by trypsinization, and resuspended in phenol red-free DMEM (Invitrogen). Cells were then incubated with 10 μg/ml of 2′,7′-dichloro-fluorescein diacetate (DCFH-DA) in DMEM for 15 min before resuspension in DMEM for assaying. Cell solution was dispensed into a black-wall 96-well pate in triplicate for fluorescence readout at Ex=485 nm and Em=530 nm with a Tecan Safire II plate reader. The fluorescence unit was normalized against viable cell numbers, which were determined using 3-(4,5-dimethylthiazol-2-yl)-2,5-diphenyl tetrazolium bromide (MTT assay, Promega, Wis., USA). Cellular ROS level was expressed relative to the control sample.
# fibronectin = assay: Real-time RT-PCR of fibronectin mRNA in HSC T6 cells; details: for suppression of fibronectin mRNA: DPIM 2 mM, TMPHIM 50 μM, DBZIM 100 μM
# Method: FIG. 6. (a) DBZIM and (b) TDBZIM suppressed the mRNA expression of HSC activation markers (GFAP and SMAA) and fibrotic endpoints (col1a1 and fibronectin) in a dosage-dependent manner. […] The ΔΔCt method was used for relative quantification with vehicle control sample being the calibrator. The data were presented as mean and SEM, N=6, *^aP<0.05, *^bP<0.01, *^cP<0.005, and *^dP<0.0005, when compared to the vehicle control. FIG. 7. DBZIM (100 μM) and TDBZIM (100 μM) suppressed (a) GFAP, (b) SMAA, (c) col1a1 and (d) fibronectin mRNA expression in a time-dependent manner. HSC T6 cells were treated with DBZIM and TDBZIM, and assayed after 8, 24 and 48 h. […] FIG. 14. […] (50 μM), […] (50 μM), […] (10 μM) and DBZBIM (100 μM) were dissolved in DMSO with a final DMSO concentration of 0.2% (v/v). DPIM (2 mM), EGCG (25 μM) and DBZIM (100 μM) were dissolved in H2O. β-actin was used as the normalization gene; its expression was constant under the experimental conditions. Relative quantification was normalized against the respective vehicle control. The data were presented as mean and SEM, N=6, *^aP<0.05, *^cP<0.005, and *^dP<0.0005, when compared to the vehicle control. Total RNA was isolated using NucleoSpin RNAII isolation kit ([…], Germany), and quantified by ND-100 spectrophotometer (Nanodrop Technologies, DE, USA). The details of real-time RT-PCR were reported elsewhere (Zhang et al. 2006). Briefly, it was a two-step real-time RT-PCR using Taqman chemistry. Total RNA was first reverse transcribed to cDNA, and real-time PCR was run and detected in ABI 7500 Fast Real-Time PCR System (Applied Biosystems, CA, USA). Primers and probes for rat GFAP, SMAA, collagen Ia1, fibronectin, TGF-β1, TGF-β receptor I (TGFβ RI) and IL-6 were ordered from Taqman's assay-on-demand database. Rat β-actin was used as normalization gene, and its expression level was constant (CT difference was <±0.5) throughout the experimental settings in this study. Relative quantification of target mRNA was calculated using comparative threshold cycle method (ΔΔCT) as described in User Bulletin #2 (ABI Prism 7700 Sequence Detection System). Relative quantification was given by 2^-ΔΔCT to express the up-regulation or down regulation of the target gene under the treatments compared to the control.
# HSC-T6 cells [2] = assay: Glutathione (GSH) and GSSG assays; details: 48 h
# Method: FIG. 3. […] (c) DBZIM and (d) TDBZIM both suppressed cellular GSSG (the oxidation product of GSH). (e) DBZIM and (f) TDBZIM both enhanced the GSH/GSSG ratio. HSC-T6 cells were incubated with compounds of various concentrations for 48 h, and assayed for the total GSH and GSSG amounts. The GSH/GSSG ratio was calculated as (GSH−GSSG)/GSSG. The GSH and GSSG amounts were normalized against the total protein. Note that DBZIM was dissolved in DMSO, and TDBZIM was dissolved in H2O. The data were presented as mean and SEM, N=6, *^aP<0.05, *^bP<0.01, *^cP<0.005, and *^dP<0.0005, when compared to the vehicle control.
# Total cellular GSH and GSSG levels were determined by using assay kits from Cayman Chemical (Ann Arbor, Mich., USA) following the manufacturer's instructions. Briefly, HSC-T6 cells treated with DBZIM, TDBZIM, NAC, or EGCG were scalped and homogenized in phosphate buffered saline (PBS) by sonication at 60% frequency for 30 s, and the supernatant was collected after centrifugation at 16,000×g for 10 min at 4° C. Protein content of the samples was determined by bicinchonicic acid (BCA) assay.
# For GSH assays, the protein sample was deproteinated by metaphosphoric acid (Aldrich, Catalog No. 23927-5), and the pH was adjusted by triethanolamine (Aldrich, Catalog No. T5830-0) according to the manual. The sample was ready for assaying total GSH including both the reduced and oxidized forms. Quantification of GSSG, exclusive of GSH, was performed by first derivatizing GSH with 2-vinylpyridine and assaying separately. Colorimetric signal was recorded at 405 nm with a Tecan Safire II plate reader. The levels of GSH or GSSG were determined as nmol/μg protein.
Molecule,"decrease of fibronectin mRNA (fibronectin; 1 μM, 48 h)","decrease of fibronectin mRNA (fibronectin; 100 μM, 8 h)","decrease of fibronectin mRNA (fibronectin; 100 μM, 24 h)","decrease of fibronectin mRNA (fibronectin; 100 μM, 48 h)",suppression of fibronectin mRNA (fibronectin; 48 h),depletion of GSSG (HSC-T6 cells [2]; 10 μM),enhancement of GSH/GSSG ratio (HSC-T6 cells [2]; 10 μM),depletion of GSSG (HSC-T6 cells [2]; 50 μM),enhancement of GSH/GSSG ratio (HSC-T6 cells [2]; 50 μM),enhancement of GSH/GSSG ratio (HSC-T6 cells [2]; 100 μM),other results
"[Br-].c1ccc(Cn2cc[n+](Cc3ccccc3)c2)cc1 [DBZIM, 1,3-bisbenzylimidazolium bromide]",19%,15%,17%,25%,26%,13%,8%,23%,15%,23%,"suppression of cellular ROS level (HSC-T6 cells [1]; 50 μM): 25%; suppression of cellular ROS level (HSC-T6 cells [1]; 300 μM): 34%; decrease of fibronectin mRNA (fibronectin; 300 μM, 48 h): 40%; attenuation of total GSH level (HSC-T6 cells [2]; 10 μM): 7%; attenuation of total GSH level (HSC-T6 cells [2]; 50 μM): 12%; attenuation of total GSH level (HSC-T6 cells [2]; 100 μM): 20%; GSH/GSSG ratio relative to control group (HSC-T6 cells [2]; 300 μM): 7.4 fold; depletion of GSSG (HSC-T6 cells [2]; 300 μM): 85%; enhancement of total GSH level (HSC-T6 cells [2]; 300 μM, without statistical significance): 8%; depletion of GSSG (HSC-T6 cells [2]; 1001 μM): 35%"
"CC(C)n1cc[n+](C(C)C)c1.F[B-](F)(F)F [DPIM, 1,3-diisopropylimidazolium tetrafluoroborate]",,,,,48%,,,,,,
"(−)-Epigallocatechin gallate [EGCG, reference compound]",,,,,,,,,,,"attenuation of cellular ROS level (references) (HSC-T6 cells [1]; EGCG 25 μM, NAC 1 mM): 14%; reduction of GSSG (references) (HSC-T6 cells [2]; EGCG 25 μM, NAC 5 mM): 42%; increase in GSH/GSSG ratio (references) (HSC-T6 cells [2]; NAC 5 mM, EGCG 25 μM): 2 fold; induction of total GSH (references) (HSC-T6 cells [2]; NAC 5 mM, EGCG 25 μM): 19%"
"1,3,5-tris(4-methyl-imidazolium)-linked cyclophane.3Br [TDBZIM]",32%,25%,29%,43%,,12%,14%,35%,65%,106%,"suppression of cellular ROS level (HSC-T6 cells [1]; 10 μM): 19%; suppression of cellular ROS level (HSC-T6 cells [1]; 100 μM): 36%; decrease of fibronectin mRNA (fibronectin; 10 μM, 48 h): 28%; depletion of GSSG (HSC-T6 cells [2]; 100 μM): 50%; effect on total cellular GSH level (HSC-T6 cells [2]; 10-100 μM): did not alter"

# Source: patent publication US9072729B2, “Method for treating fibrosis and cancer with imidazolium and imidazolinium compounds” (Agency for Science, Technology and Research, priority 2008, dated 2015)
